Experimental data: patent US20230364089A1, “COMPOUNDS AND COMPOSITIONS FOR THE TREATMENT OR PREVENTION OF PATHOLOGICAL CONDITIONS ASSOCIATED WITH EXCESS FIBRIN DEPOSITION AND/OR THROMBUS FORMATION” (Cereno Scientific AB, priority 2016, published 2023)
Read-outs that look alike come from different tables or passages of the source.

Assays:
[1] = cited from earlier work
[2] = tested on: PAI-1; assay: Proof-of-concept study 1: plasma PAI-1 before and after VPA in healthy subjects; type: in vivo, human
Description: (§1) The effects of VPA on PAI-1 were analysed in two different proof-of-concept studies in healthy subjects as well as in patients with manifest atherosclerotic disease. […] PAI-1 plasma levels were measured in the morning at the first day of the study as well as at the end of the treatment period with VPA (see example 2 for details on the PAI-1 analysis).
In the first study, 10 healthy non-smoking white male subjects (with mean BMI of approximately 26), aged 50-70 years were included and treated with valproic acid 500 mg (Ergenyl Retard, Sanofi) twice daily during 14 days.

[3] = tested on: PAI-1; assay: Proof-of-concept study 2: plasma PAI-1 before and after VPA in patients with a history of myocardial infarction; type: in vivo, human; conditions: midmorning; for reduction in circulating plasma PAI-1 levels: 16 male patients with history of myocardial infarction, valproic acid 500 mg (Ergenyl Retard) twice daily for 28 days on top of ordinary prescription, p=0.01
Description: as §1
In the second study, 16 non-smoking white male patients, aged 50-80 years with a history of a myocardial infarction were included. On top of their ordinary prescription (beta-blocker, ACE-inhibitor, statin, aspirin) they were treated with valproic acid 500 mg (Ergenyl Retard, Sanofi), twice daily during 28 days.

[4] = tested on: cultured endothelial cells; assay: PAI-1 mRNA / production in cultured endothelial cells after VPA treatment; type: cell-based; conditions: no decrease of PAI-1 mRNA levels, slight but significant increase
[5] = tested on: PAI-1; assay: Plasma PAI-1 in in vivo model in mouse; conditions: in vivo model in mouse (unpublished data)
[6] = Example 3 clinical outcome study in high-risk patients: recurrent atherothrombotic events; type: in vivo, human; conditions: 400 mg valproic acid once daily at 11 pm, long-term, expected
Description: A clinical outcome study is performed in high-risk patients who have experienced a recent major atherothrombotic cardiovascular event (myocardial infarction or TIA/ischemic stroke) to investigate the preventive effect of valproic acid treatment on the risk for recurrent events. The annual risk for a recurrent atherothrombotic event in the investigated population is estimated to approximately 7%. […] The event rate is monitored by Kaplan-Meyer statistics. The primary efficacy endpoint is the composite measure of either mortality, or non-fatal myocardial infarction or ischemic stroke. The study is event-driven to a total of 180 events. […] Thus, the study is expected to confirm the clinical efficacy and feasibility of using valproic acid for secondary prevention of cardiovascular disease.

[7] = tested on: PAI-1; conditions: in vivo model in pig (Svennerholm et al., PLoS One 2014); cited from earlier work
[8] = tested on: PAI-1; assay: Example 2 intermediate endpoint study in patients with TIA/minor stroke: plasma PAI-1 and plasma valproic acid
Description: An intermediate endpoint proof-of-concept study is performed in patients with TIA/minor stroke investigated before and after treatment with Valproic acid. Valproic acid is administrated as an enteric-coated tablet with delayed absorption.
The study comprises 20 patients with TIA/minor stroke. Patients are investigated before and after oral treatment with 400 mg valproic acid once time daily at 11 pm for 2 weeks. Plasma PAI-1 levels and plasma concentrations of valproic acid is followed daily during the study period at the following time-points: 3 am, 6 am, 10 am, 16 pm, 22 pm PAI-1 levels are measured by commercially available ELISA-kits (Coaliza PAI-1, ChromogenixAB) and the plasma concentration of valproic acid an metabolites thereof is analyzed according to clinical routine at the Sahlgrenska University laboratory, Gothenburg, Sweden.

[9] = once daily (in healthy volunteers); cited from earlier work

O=C(/C=C/c1cccc(S(=O)(=O)Nc2ccccc2)c1)NO [Belinostat, (2E)-3-[3-(anilinosulfonyl)phenyl]-N-hydroxy-acrylamide]
MTD ([1]; bidaily): 1000 mg bidaily

CCCCc1nc2cc(/C=C/C(=O)NO)ccc2n1CCN(CC)CC [SB939, (2E)-3-{2-butyl-1-[2-(diethylamino)ethyl]-1H-benzimidazol-5-yl}-N-hydroxyacrylamide]
MTD ([1]; once daily): 60 mg once daily

CCCC(CCC)C(=O)O [valproic acid, 2-propylpentanoic acid]
reduction in circulating plasma PAI-1 levels ([2]; 10 healthy men aged 50-70, valproic acid 500 mg (Ergenyl Retard) twice daily for 14 days, mid-morning vs before treatment, p<0.05): more than 50%
circulating plasma PAI-1 level after treatment ([2]; healthy men, valproic acid 500 mg twice daily for 14 days, mid-morning, 22.2 ng/ml before treatment): 10.8 ng/mL
reduction in circulating plasma PAI-1 levels [3]: 45%
reduction in circulating plasma PAI-1 levels ([3]; listed as VPA): about 45%
circulating plasma PAI-1 level after treatment ([3]; patients with history of myocardial infarction, valproic acid 500 mg twice daily for 28 days, 19.6 ng/ml before treatment): 11 ng/mL
increase in PAI-1 production [4]: 30%
effects on plasma PAI-1 [5]: did not detect any effects
reduction of risk for recurrent atherothrombotic event ([6]; in addition to conventional therapy): approximately 30%
annual absolute event rate ([6]; approximately 7% estimated without treatment): approximately 5%
effects on plasma PAI-1 [7]: did not detect any effects
time of peak plasma concentration of valproic acid ([8]; 400 mg valproic acid enteric-coated tablet with delayed absorption, oral once daily at 11 pm for 2 weeks): between 3 am and 6 am
lowering of plasma PAI-1 levels after the treatment ([8]; 400 mg valproic acid oral once daily at 11 pm for 2 weeks): approximately 30%

O=C(CCCCCCC(=O)Nc1ccccc1)NO [Vorinostat, N-hydroxy-N′-phenyl-octanediamide]
MTD ([1]; once daily): 400 mg once daily

Cc1[nH]c2ccccc2c1CCNCc1ccc(/C=C/C(=O)NO)cc1 [Panobinostat, (E)-N-hydroxy-3-[4-[[2-(2-methyl-1H-indol-3-yl)ethylamino]methyl]phenyl]prop-2-enamide]
MTD ([1]; every other day): 20 mg every other day

CCN(CC)Cc1ccc2cc(COC(=O)Nc3ccc(C(=O)NO)cc3)ccc2c1.Cl [Givinostat, {6-[(diethylamino)methyl]-naphthalen-2-yl}methyl[4-(hydroxycarbamoyl)phenyl]carbamate]
MTD [9]: 200 mg once daily (in healthy volunteers)
